Experimental data as given in PubChem BioAssay (NCI).
Several values for one entry are separate records, joined by “and”; a condition that tells them apart may be missing. Equal entries are not always repeated.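 The compound was tested at five concentrations on cells cultured in 96-well plates, with a 48-hour exposure period. GI50: concentration for 50% inhibition of growth. TGI is the concentration that stops growth completely.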

Legend:
Assay in all cases: NCI anticancer screen, dose series, 48 h
786-0 renal = tested on: 786-0 renal
A498 renal = tested on: A498 renal
A549 NSCLC = tested on: A549 NSCLC
ACHN renal = tested on: ACHN renal
BT-549 breast = tested on: BT-549 breast
CAKI-1 renal = tested on: CAKI-1 renal
COLO 205 colon = tested on: COLO 205 colon
EKVX NSCLC = tested on: EKVX NSCLC
HCC-2998 colon = tested on: HCC-2998 colon
HCT-116 colon = tested on: HCT-116 colon
HCT-15 colon = tested on: HCT-15 colon
HL-60(TB) leukemia = tested on: HL-60(TB) leukemia
HOP-92 NSCLC = tested on: HOP-92 NSCLC
HS 578T breast = tested on: HS 578T breast
HT29 colon = tested on: HT29 colon
IGROV1 ovarian = tested on: IGROV1 ovarian
KM12 colon = tested on: KM12 colon
LOX IMVI melanoma = tested on: LOX IMVI melanoma
M14 melanoma = tested on: M14 melanoma
MALME-3M melanoma = tested on: MALME-3M melanoma
MCF7 breast = tested on: MCF7 breast
MDA-MB-231 breast = tested on: MDA-MB-231 breast
MDA-MB-435 = tested on: MDA-MB-435
MDA-MB-468 breast = tested on: MDA-MB-468 breast
MOLT-4 leukemia = tested on: MOLT-4 leukemia
NCI-H226 lung = tested on: NCI-H226 lung
NCI-H23 lung = tested on: NCI-H23 lung
NCI-H460 lung = tested on: NCI-H460 lung
NCI-H522 lung = tested on: NCI-H522 lung
NCI/ADR-RES ovarian = tested on: NCI/ADR-RES ovarian
OVCAR-3 ovarian = tested on: OVCAR-3 ovarian
OVCAR-5 ovarian = tested on: OVCAR-5 ovarian
OVCAR-8 ovarian = tested on: OVCAR-8 ovarian
PC-3 prostate = tested on: PC-3 prostate
RXF 393 renal = tested on: RXF 393 renal
SF-295 CNS = tested on: SF-295 CNS
SF-539 CNS = tested on: SF-539 CNS
SK-MEL-2 melanoma = tested on: SK-MEL-2 melanoma
SK-MEL-28 melanoma = tested on: SK-MEL-28 melanoma
SK-MEL-5 melanoma = tested on: SK-MEL-5 melanoma
SK-OV-3 ovarian = tested on: SK-OV-3 ovarian
SN12C renal = tested on: SN12C renal
SNB-19 CNS = tested on: SNB-19 CNS
SNB-75 CNS = tested on: SNB-75 CNS
SW-620 colon = tested on: SW-620 colon
T-47D breast = tested on: T-47D breast
TK-10 renal = tested on: TK-10 renal
U251 CNS = tested on: U251 CNS
UACC-257 melanoma = tested on: UACC-257 melanoma
UACC-62 melanoma = tested on: UACC-62 melanoma
UO-31 renal = tested on: UO-31 renal

SMILES: O/N=C(\CSc1nnc(-c2c[nH]c3ccccc23)n1-c1ccccc1)c1ccc(Br)cc1
- GI50 (786-0 renal): 6.85 µM
- TGI (786-0 renal): 27 µM
- GI50 (A498 renal): 16.3 µM
- TGI (A498 renal): 51.7 µM
- GI50 (A549 NSCLC): 2.49 µM
- TGI (A549 NSCLC): 6.66 µM
- GI50 (ACHN renal): 2.53 µM
- TGI (ACHN renal): 7.05 µM
- GI50 (BT-549 breast): 3.16 µM
- TGI (BT-549 breast): 7.25 µM
- GI50 (CAKI-1 renal): 2.63 µM
- TGI (CAKI-1 renal): 8.1 µM
- GI50 (COLO 205 colon): 3.8 µM
- TGI (COLO 205 colon): 16.6 µM
- GI50 (EKVX NSCLC): 2.6 µM
- TGI (EKVX NSCLC): 9.09 µM
- GI50 (HCC-2998 colon): 3.36 µM
- TGI (HCC-2998 colon): 12.3 µM
- GI50 (HCT-116 colon): 3.45 µM
- TGI (HCT-116 colon): 17.4 µM
- GI50 (HCT-15 colon): 2.11 µM
- TGI (HCT-15 colon): 4.72 µM
- GI50 (HL-60(TB) leukemia): 1.92 µM
- TGI (HL-60(TB) leukemia): 4.55 µM
- GI50 (HOP-92 NSCLC): 3.66 µM
- TGI (HOP-92 NSCLC): 24.1 µM
- GI50 (HS 578T breast): 2.84 µM
- TGI (HS 578T breast): 11.9 µM
- GI50 (HT29 colon): 2.23 µM
- TGI (HT29 colon): 5.03 µM
- GI50 (IGROV1 ovarian): 3.41 µM
- TGI (IGROV1 ovarian): 11.7 µM
- GI50 (KM12 colon): 4.15 µM
- TGI (KM12 colon): 29.2 µM
- GI50 (LOX IMVI melanoma): 1.71 µM
- TGI (LOX IMVI melanoma): 3.12 µM
- GI50 (M14 melanoma): 3.4 µM
- TGI (M14 melanoma): 17.6 µM
- GI50 (MALME-3M melanoma): 3.22 µM
- TGI (MALME-3M melanoma): 14.3 µM
- GI50 (MCF7 breast): 3.49 µM
- TGI (MCF7 breast): 15.3 µM
- GI50 (MDA-MB-231 breast): 1.71 µM
- TGI (MDA-MB-231 breast): 3.26 µM
- GI50 (MDA-MB-435): 2.01 µM
- TGI (MDA-MB-435): 3.89 µM
- GI50 (MDA-MB-468 breast): 1.72 µM
- TGI (MDA-MB-468 breast): 3.3 µM
- GI50 (MOLT-4 leukemia): 2.09 µM
- TGI (MOLT-4 leukemia): 4.8 µM
- GI50 (NCI-H226 lung): 3.33 µM
- TGI (NCI-H226 lung): 14.9 µM
- GI50 (NCI-H23 lung): 4.31 µM
- TGI (NCI-H23 lung): 19.6 µM
- GI50 (NCI-H460 lung): 3.53 µM
- TGI (NCI-H460 lung): 12.9 µM
- GI50 (NCI-H522 lung): 2.52 µM
- TGI (NCI-H522 lung): 7.7 µM
- GI50 (NCI/ADR-RES ovarian): 1.9 µM
- TGI (NCI/ADR-RES ovarian): 3.91 µM
- GI50 (OVCAR-3 ovarian): 4.98 µM
- TGI (OVCAR-3 ovarian): 23.8 µM
- GI50 (OVCAR-5 ovarian): 2.18 µM
- TGI (OVCAR-5 ovarian): 5.21 µM
- GI50 (OVCAR-8 ovarian): 2.45 µM
- TGI (OVCAR-8 ovarian): 6.5 µM
- GI50 (PC-3 prostate): 2.15 µM
- TGI (PC-3 prostate): 4.96 µM
- GI50 (RXF 393 renal): 1.75 µM
- TGI (RXF 393 renal): 3.65 µM
- GI50 (SF-295 CNS): 1.93 µM
- TGI (SF-295 CNS): 4.7 µM
- GI50 (SF-539 CNS): 4.04 µM
- TGI (SF-539 CNS): 14.2 µM
- GI50 (SK-MEL-2 melanoma): 3.1 µM
- TGI (SK-MEL-2 melanoma): 10.4 µM
- GI50 (SK-MEL-28 melanoma): 3.4 µM
- TGI (SK-MEL-28 melanoma): 12.5 µM
- GI50 (SK-MEL-5 melanoma): 3.55 µM
- TGI (SK-MEL-5 melanoma): 12.8 µM
- GI50 (SK-OV-3 ovarian): 2.53 µM
- TGI (SK-OV-3 ovarian): 6.03 µM
- GI50 (SN12C renal): 2.52 µM
- TGI (SN12C renal): 7.97 µM
- GI50 (SNB-19 CNS): 4.33 µM
- TGI (SNB-19 CNS): 19.8 µM
- GI50 (SNB-75 CNS): 1.87 µM
- TGI (SNB-75 CNS): 4.95 µM
- GI50 (SW-620 colon): 3.28 µM
- TGI (SW-620 colon): 12.1 µM
- GI50 (T-47D breast): 3.51 µM
- TGI (T-47D breast): 17.2 µM
- GI50 (TK-10 renal): 2.8 µM
- TGI (TK-10 renal): 7.63 µM
- GI50 (U251 CNS): 4.38 µM
- TGI (U251 CNS): 17.3 µM
- GI50 (UACC-257 melanoma): 3.87 µM
- TGI (UACC-257 melanoma): 17.5 µM
- GI50 (UACC-62 melanoma): 1.77 µM
- TGI (UACC-62 melanoma): 3.74 µM
- GI50 (UO-31 renal): 2.29 µM
- TGI (UO-31 renal): 7.81 µM

SMILES: CN1CCN(Cc2ccc(NC(=O)c3cncc(C#Cc4c(N)ncc5ccccc45)c3)cc2C(F)(F)F)CC1
- GI50 (MDA-MB-468 breast): 0.818 µM
- TGI (MDA-MB-468 breast): 1.63 µM

SMILES: C#CCn1cccc1CNc1ccc(OC)cc1
- GI50 (MDA-MB-468 breast): 14.2 µM
- TGI (MDA-MB-468 breast): 60.5 µM

SMILES: COc1ccc(/C=C\c2cc(OC)c(OC)c(OC)c2)cc1NC(=O)/C=C/c1cc(OC)c(OC)c(OC)c1
- GI50 (MDA-MB-468 breast): 1.82 µM
- TGI (MDA-MB-468 breast): 6.66 µM

SMILES: Nc1nc(SCC#CCCl)c2[nH]cnc2n1
- GI50 (MDA-MB-468 breast): 1.88 µM
- TGI (MDA-MB-468 breast): 6.38 µM

SMILES: O=C1c2ccccc2-c2cn(Cc3ccccc3)c3cccc(c23)C1c1cccnc1 (stereo not given)
- GI50 (MDA-MB-468 breast): 2 µM
- TGI (MDA-MB-468 breast): 37.6 µM

SMILES: Cc1ccc(C)c(N2CCN(c3ccncc3N)CC2)c1
- GI50 (MDA-MB-468 breast): 3.4 µM
- TGI (MDA-MB-468 breast): 18 µM

SMILES: O=C(NOCCO)c1ccc2cncn2c1Nc1ccc(I)cc1F
- GI50 (MDA-MB-468 breast): > 10 µM and 22.3 µM
- TGI (MDA-MB-468 breast): > 100 µM

SMILES: COc1cc(OC)c(/C=C/S(=O)(=O)Cc2ccc(OC)c(N)n2)c(OC)c1
- GI50 (MDA-MB-468 breast): < 0.01 µM
- TGI (MDA-MB-468 breast): > 100 µM

SMILES: COC(=O)[C@]12CC[C@@H](C)[C@H](C)[C@@H]1C1=CC[C@@H]3[C@@]4(C)C[C@@H](OC(C)=O)[C@H](OC(C)=O)[C@@](C)(COC(C)=O)[C@@H]4[C@H](O)C[C@@]3(C)[C@]1(C)CC2
- GI50 (MDA-MB-468 breast): 0.832 µM
- TGI (MDA-MB-468 breast): 46 µM

SMILES: CCCCCn1sc(=O)n(Cc2ccc(CNC(=O)C(C)c3ccc(CC(C)C)cc3)cc2)c1=O (stereo not given)
- GI50 (MDA-MB-468 breast): 0.945 µM
- TGI (MDA-MB-468 breast): 2.45 µM

SMILES: CC/C(=C/c1ccc(OC)cc1)[N+](=O)[O-]
- GI50 (MDA-MB-468 breast): 1.83 µM
- TGI (MDA-MB-468 breast): 3.63 µM

SMILES: COc1cccc(/C=C\C(=O)c2ccccc2)c1
- GI50 (MDA-MB-468 breast): 2.14 µM
- TGI (MDA-MB-468 breast): 6.49 µM

SMILES: CC[C@H](C)[C@H](NC(=O)CN(C)C)C(=O)N(C)[C@H](C[C@@H](OC(C)=O)c1nc(C(=O)NC23C4C5C2C2C3C4C52C(=O)OC)cs1)C(C)C (stereo not given in full)
- GI50 (MDA-MB-468 breast): 0.147 µM
- TGI (MDA-MB-468 breast): > 33.2 µM

SMILES: CCCCCCCCCC(=O)Oc1ccc(/C(=C(/C)c2ccccc2)c2ccc(OCCN3CCCC3)cc2)cc1
- GI50 (MDA-MB-468 breast): 7.25 µM
- TGI (MDA-MB-468 breast): 14.7 µM
